# According to ChEMBL document CHEMBL4346717, “1,2,4-Triazole-quinoline/quinolone hybrids as potential anti-bacterial agents” (Eur J Med Chem, 2019):
# Assays:
# Format in all cases: functional
# Escherichia coli [1] = assay: Antibacterial activity against Escherichia coli
# Staphylococcus aureus [2] = assay: Antibacterial activity against Staphylococcus aureus
# Bacillus subtilis [3] = assay: Antibacterial activity against Bacillus subtilis assessed as zone of inhibition at 10 mg/ml after 3 to 7 days by cup diffusion method; conditions: read-out: IZ
# Escherichia coli [4] = assay: Antibacterial activity against Escherichia coli after 3 to 7 days by cup diffusion method
# Escherichia coli [5] = assay: Antibacterial activity against Escherichia coli assessed as zone of inhibition at 10 mg/ml after 3 to 7 days by cup diffusion method; conditions: read-out: IZ
# [6] = tested on: Aggregatibacter actinomycetemcomitans; assay: Antibacterial activity against Aggregatibacter actinomycetemcomitans ATCC 29524 after 3 to 7 days by cup diffusion method
# [7] = tested on: Aggregatibacter actinomycetemcomitans; assay: Antibacterial activity against Aggregatibacter actinomycetemcomitans ATCC 29524 assessed as zone of inhibition at 10 mg/ml after 3 to 7 days by cup diffusion method; conditions: read-out: IZ
# Pseudomonas aeruginosa [8] = assay: Antibacterial activity against Pseudomonas aeruginosa after 3 to 7 days by cup diffusion method
# Staphylococcus aureus [9] = assay: Antibacterial activity against Staphylococcus aureus assessed as zone of inhibition at 10 mg/ml after 3 to 7 days by cup diffusion method; conditions: read-out: IZ
# Mycolicibacterium phlei [10] = assay: Antibacterial activity against Mycobacterium phlei clinical isolate after 3 to 7 days by cup diffusion method
# Pseudomonas aeruginosa [11] = assay: Antibacterial activity against Pseudomonas aeruginosa assessed as zone of inhibition at 10 mg/ml after 3 to 7 days by cup diffusion method; conditions: read-out: IZ
# Staphylococcus aureus [12] = assay: Antibacterial activity against Staphylococcus aureus after 3 to 7 days by cup diffusion method
# Bacillus subtilis [13] = assay: Antibacterial activity against Bacillus subtilis after 3 to 7 days by cup diffusion method
# Mycolicibacterium phlei [14] = assay: Antibacterial activity against Mycobacterium phlei clinical isolate assessed as zone of inhibition at 10 mg/ml after 3 to 7 days by cup diffusion method; conditions: read-out: IZ
# [15] = Escherichia coli, read-out: MIC
# [16] = Aggregatibacter actinomycetemcomitans, ATCC 29524, read-out: MIC
# [17] = Pseudomonas aeruginosa, read-out: MIC
# [18] = Mycolicibacterium phlei, read-out: MIC
# [19] = Staphylococcus aureus, read-out: MIC
# [20] = Bacillus subtilis, read-out: MIC
MIC (Escherichia coli [4]),MIC [6],MIC (Pseudomonas aeruginosa [8]),MIC (Mycolicibacterium phlei [10]),MIC (Staphylococcus aureus [12]),MIC (Bacillus subtilis [13]),MIC (Escherichia coli [4]; [15]),"MIC [6, 16]",MIC (Pseudomonas aeruginosa [8]; [17]),MIC (Mycolicibacterium phlei [10]; [18]),MIC (Staphylococcus aureus [12]; [19]),MIC (Bacillus subtilis [13]; [20]),SMILES,MIC (Escherichia coli [1]),MIC (Staphylococcus aureus [2]),zone of inhibition at 10000 µg/mL (Bacillus subtilis [3]),zone of inhibition at 10000 µg/mL (Escherichia coli [5]),zone of inhibition at 10000 µg/mL [7],zone of inhibition at 10000 µg/mL (Staphylococcus aureus [9]),zone of inhibition at 10000 µg/mL (Pseudomonas aeruginosa [11]),zone of inhibition at 10000 µg/mL (Mycolicibacterium phlei [14])
–,–,–,–,–,–,3.68 to 6.3 µM,3.68 to 6.3 µM,3.68 to 6.3 µM,3.68 to 6.3 µM,3.68 to 6.3 µM,3.68 to 6.3 µM,CCn1cc(-c2nc(/N=C/c3ccc(Cl)cc3)n[nH]2)c(=O)c2cc(Br)c(C)nc21,–,–,20 to 40 mm,20 to 40 mm,20 to 40 mm,20 to 40 mm,20 to 40 mm,20 to 40 mm
>=0.031 - 32 ug ml-1,>=0.031 - 32 ug ml-1,>=0.031 - 32 ug ml-1,>=0.031 - 32 ug ml-1,>=0.031 - 32 ug ml-1,>=0.031 - 32 ug ml-1,–,–,–,–,–,–,CCn1cc(-c2nc(/N=C/c3ccc(Cl)cc3)n[nH]2)c(=O)c2ccc(C)nc21,–,–,20 to 40 mm,20 to 40 mm,20 to 40 mm,20 to 40 mm,20 to 40 mm,20 to 40 mm
–,–,–,–,–,–,3.68 to 6.3 µM,3.68 to 6.3 µM,3.68 to 6.3 µM,3.68 to 6.3 µM,3.68 to 6.3 µM,3.68 to 6.3 µM,CCn1cc(-c2nc(/N=C/c3ccccc3)n[nH]2)c(=O)c2cc(Br)c(C)nc21,–,–,20 to 40 mm,20 to 40 mm,20 to 40 mm,20 to 40 mm,20 to 40 mm,20 to 40 mm
–,–,–,–,–,–,3.68 to 6.3 µM,3.68 to 6.3 µM,3.68 to 6.3 µM,3.68 to 6.3 µM,3.68 to 6.3 µM,3.68 to 6.3 µM,CCn1cc(-c2nc(/N=C/c3ccccc3O)n[nH]2)c(=O)c2cc(Br)c(C)nc21,–,–,20 to 40 mm,20 to 40 mm,20 to 40 mm,20 to 40 mm,20 to 40 mm,20 to 40 mm
–,–,–,–,–,–,3.68 to 6.3 µM,3.68 to 6.3 µM,3.68 to 6.3 µM,3.68 to 6.3 µM,3.68 to 6.3 µM,3.68 to 6.3 µM,CCn1cc(-c2nc(/N=C/c3ccc(Cl)cc3Cl)n[nH]2)c(=O)c2cc(Br)c(C)nc21,–,–,20 to 40 mm,20 to 40 mm,20 to 40 mm,20 to 40 mm,20 to 40 mm,20 to 40 mm
>=0.031 - 32 ug ml-1,>=0.031 - 32 ug ml-1,>=0.031 - 32 ug ml-1,>=0.031 - 32 ug ml-1,>=0.031 - 32 ug ml-1,>=0.031 - 32 ug ml-1,–,–,–,–,–,–,CCn1cc(-c2nc(/N=C/c3ccc(OC)cc3)n[nH]2)c(=O)c2ccc(C)nc21,–,–,20 to 40 mm,20 to 40 mm,20 to 40 mm,20 to 40 mm,20 to 40 mm,20 to 40 mm
>=0.031 - 32 ug ml-1,>=0.031 - 32 ug ml-1,>=0.031 - 32 ug ml-1,>=0.031 - 32 ug ml-1,>=0.031 - 32 ug ml-1,>=0.031 - 32 ug ml-1,–,–,–,–,–,–,CCn1cc(-c2nc(/N=C/c3ccc(Br)cc3)n[nH]2)c(=O)c2ccc(C)nc21,–,–,20 to 40 mm,20 to 40 mm,20 to 40 mm,20 to 40 mm,20 to 40 mm,20 to 40 mm
>=0.031 - 32 ug ml-1,>=0.031 - 32 ug ml-1,>=0.031 - 32 ug ml-1,>=0.031 - 32 ug ml-1,–,>=0.031 - 32 ug ml-1,–,–,–,–,–,–,CCn1cc(-c2nc(/N=C/c3ccccc3O)n[nH]2)c(=O)c2ccc(C)nc21,–,–,20 to 40 mm,20 to 40 mm,20 to 40 mm,20 to 40 mm,20 to 40 mm,20 to 40 mm
–,–,–,–,–,–,3.68 to 6.3 µM,3.68 to 6.3 µM,3.68 to 6.3 µM,3.68 to 6.3 µM,3.68 to 6.3 µM,3.68 to 6.3 µM,CCn1cc(-c2nc(NC(=O)c3ccc(Cl)cc3)n[nH]2)c(=O)c2cc(Br)c(C)nc21,–,–,20 to 40 mm,20 to 40 mm,20 to 40 mm,20 to 40 mm,20 to 40 mm,20 to 40 mm
>=0.031 - 32 ug ml-1,>=0.031 - 32 ug ml-1,>=0.031 - 32 ug ml-1,>=0.031 - 32 ug ml-1,>=0.031 - 32 ug ml-1,>=0.031 - 32 ug ml-1,–,–,–,–,–,–,CCn1cc(-c2nc(/N=C/c3ccc(F)cc3)n[nH]2)c(=O)c2ccc(C)nc21,–,–,20 to 40 mm,20 to 40 mm,20 to 40 mm,20 to 40 mm,20 to 40 mm,20 to 40 mm
–,–,–,–,–,–,3.68 to 6.3 µM,3.68 to 6.3 µM,3.68 to 6.3 µM,3.68 to 6.3 µM,3.68 to 6.3 µM,3.68 to 6.3 µM,CCn1cc(-c2nc(/N=C/c3ccc(F)cc3)n[nH]2)c(=O)c2cc(Br)c(C)nc21,–,–,20 to 40 mm,20 to 40 mm,20 to 40 mm,20 to 40 mm,20 to 40 mm,20 to 40 mm
–,–,–,–,–,–,3.68 to 6.3 µM,3.68 to 6.3 µM,3.68 to 6.3 µM,3.68 to 6.3 µM,3.68 to 6.3 µM,3.68 to 6.3 µM,CCn1cc(-c2nc(/N=C/c3ccc(Br)cc3)n[nH]2)c(=O)c2cc(Br)c(C)nc21,–,–,20 to 40 mm,20 to 40 mm,20 to 40 mm,20 to 40 mm,20 to 40 mm,20 to 40 mm

# Second part, the compound before the results:
SMILES,MIC (Escherichia coli [4]),MIC [6],MIC (Pseudomonas aeruginosa [8]),MIC (Mycolicibacterium phlei [10]),MIC (Staphylococcus aureus [12]),MIC (Bacillus subtilis [13]),MIC (Escherichia coli [4]; [15]),"MIC [6, 16]",MIC (Pseudomonas aeruginosa [8]; [17]),MIC (Mycolicibacterium phlei [10]; [18]),MIC (Staphylococcus aureus [12]; [19]),MIC (Bacillus subtilis [13]; [20]),MIC (Escherichia coli [1]),MIC (Staphylococcus aureus [2]),zone of inhibition at 10000 µg/mL (Bacillus subtilis [3]),zone of inhibition at 10000 µg/mL (Escherichia coli [5]),zone of inhibition at 10000 µg/mL [7],zone of inhibition at 10000 µg/mL (Staphylococcus aureus [9]),zone of inhibition at 10000 µg/mL (Pseudomonas aeruginosa [11]),zone of inhibition at 10000 µg/mL (Mycolicibacterium phlei [14])
CN1CCN(Cn2nc3c(F)cc4c(=O)c(C(=O)O)cn(C5CC5)c4n3c2=S)CC1,–,–,–,–,–,–,–,–,–,–,–,–,0.125 to 8 µg/mL,0.125 to 8 µg/mL,–,–,–,–,–,–
CCn1cc(-c2nc(NC(=O)c3ccccc3)n[nH]2)c(=O)c2ccc(C)nc21,>=0.031 - 32 ug ml-1,>=0.031 - 32 ug ml-1,>=0.031 - 32 ug ml-1,>=0.031 - 32 ug ml-1,>=0.031 - 32 ug ml-1,>=0.031 - 32 ug ml-1,–,–,–,–,–,–,–,–,20 to 40 mm,20 to 40 mm,20 to 40 mm,20 to 40 mm,20 to 40 mm,20 to 40 mm
CCN(CC)Cn1nc2c(F)cc3c(=O)c(C(=O)O)cn(C4CC4)c3n2c1=S,–,–,–,–,–,–,–,–,–,–,–,–,4 to 32 µg/mL,4 to 32 µg/mL,–,–,–,–,–,–
CCn1cc(-c2nc(NC(=O)CCl)n[nH]2)c(=O)c2ccc(C)nc21,>=0.031 - 32 ug ml-1,>=0.031 - 32 ug ml-1,>=0.031 - 32 ug ml-1,>=0.031 - 32 ug ml-1,>=0.031 - 32 ug ml-1,>=0.031 - 32 ug ml-1,–,–,–,–,–,–,–,–,20 to 40 mm,20 to 40 mm,20 to 40 mm,20 to 40 mm,20 to 40 mm,20 to 40 mm
CCn1cc(-c2nc(NC(=O)c3ccc(F)cc3)n[nH]2)c(=O)c2ccc(C)nc21,>=0.031 - 32 ug ml-1,>=0.031 - 32 ug ml-1,>=0.031 - 32 ug ml-1,>=0.031 - 32 ug ml-1,>=0.031 - 32 ug ml-1,>=0.031 - 32 ug ml-1,–,–,–,–,–,–,–,–,20 to 40 mm,20 to 40 mm,20 to 40 mm,20 to 40 mm,20 to 40 mm,20 to 40 mm
CCn1cc(-c2nc(NC(=O)c3ccc(OC)cc3)n[nH]2)c(=O)c2ccc(C)nc21,>=0.031 - 32 ug ml-1,>=0.031 - 32 ug ml-1,>=0.031 - 32 ug ml-1,>=0.031 - 32 ug ml-1,>=0.031 - 32 ug ml-1,>=0.031 - 32 ug ml-1,–,–,–,–,–,–,–,–,20 to 40 mm,20 to 40 mm,20 to 40 mm,20 to 40 mm,20 to 40 mm,20 to 40 mm
CN(C)Cn1nc2c(F)cc3c(=O)c(C(=O)O)cn(C4CC4)c3n2c1=S,–,–,–,–,–,–,–,–,–,–,–,–,4 to 32 µg/mL,4 to 32 µg/mL,–,–,–,–,–,–
O=C(O)c1cn(C2CC2)c2c(cc(F)c3nn(CN4CCOCC4)c(=S)n32)c1=O,–,–,–,–,–,–,–,–,–,–,–,–,0.125 to 8 µg/mL,0.125 to 8 µg/mL,–,–,–,–,–,–
CCN1CCN(Cn2nc3c(F)cc4c(=O)c(C(=O)O)cn(C5CC5)c4n3c2=S)CC1,–,–,–,–,–,–,–,–,–,–,–,–,0.125 to 8 µg/mL,0.125 to 8 µg/mL,–,–,–,–,–,–
O=C(O)c1cn(C2CC2)c2c(cc(F)c3nn(CN4CCCCC4)c(=S)n32)c1=O,–,–,–,–,–,–,–,–,–,–,–,–,0.125 to 8 µg/mL,0.125 to 8 µg/mL,–,–,–,–,–,–
O=C(O)c1cn(C2CC2)c2c(cc(F)c3nn(CN4CCCC4)c(=S)n32)c1=O,–,–,–,–,–,–,–,–,–,–,–,–,0.125 to 8 µg/mL,0.125 to 8 µg/mL,–,–,–,–,–,–
CC1CNCCN1Cn1nc2c(F)cc3c(=O)c(C(=O)O)cn(C4CC4)c3n2c1=S (configuration not stated),–,–,–,–,–,–,–,–,–,–,–,–,0.125 to 0.5 µg/mL,0.125 to 0.5 µg/mL,–,–,–,–,–,–
